Key:
[1] = tested on: LC3-II; assay: Autophagy activity of epidermal keratinocytes (LC3-II accumulation with chloroquine diphosphate, Western blotting); format: cell-based, human; conditions: chloroquine diphosphate 10 μM, 24 hours, FIG. 18
Procedure: Normal human neonatal foreskin-derived epidermal keratinocytes (Human Epidermal Keratinocytes, neonatal (HEKn) lightly; keratinocytes) were purchased from Thermo Fisher Scientific. […] The keratinocytes were cultured in a grow medium (Epilife) epidermal keratinocytes (Thermo Fisher Scientific) supplemented with a growth additive (Humedia-KG) (manufactured by Kurabo Industries Ltd.) at 37° C. in 5 vol % CO2 atmospheric conditions.
Keratinocytes were seeded in a 6-well plate at a density of 1.5×10^5 cells/well (2 mL/well). The following day, proguanil was added so as to obtain a final concentration of 0.3, 1, 3, 10 or 30 μM. Culture was performed at 37° C. in 5 vol % CO2 atmospheric conditions. As a control, the same amount of DMSO was added. […] The following day, Chloroquine diphosphate attached to LC3B Antibody Kit for Autophagy (Thermo Fisher Scientific) was added so as to obtain a final concentration of 10 μM. Culture was performed at 37° C. in 5 vol % CO2 atmospheric conditions for 24 hours. After completion of the culture, SDS-PAGE and western blotting were performed in accordance with the method as mentioned above. As a primary antibody, anti-LC3B (1:1000) attached to the kit mentioned above was used. […] Expression of β-actin as the internal standard was evaluated by using monoclonal antibody specific for β-actin (Sigma-Aldrich, 1:5000).

[2] = tested on: human skin tissue; assay: Fontana-Masson staining of cultured human skin tissue (melanin deposition); format: cell-based
Procedure: (1) A normal human skin tissue obtained at the time of a surgical operation was purchased from a Skin Bank of the United States, National Disease Research Interchange (NDRI). The human skin tissue, from which subcutaneous fat was previously removed, was cut into pieces having a size of about 1 cm×about 1 cm by knife and cultured by using a 6-well plate at 37° C. under a 5% CO2 atmosphere. Advanced-DMEM medium containing 10% (v/v) Fetal Bovine Serum (FBS) (Life Technologies, respectively) was used for culture. (3) Next, the skin tissue cultured was subjected to Fontana-Masson staining to observe deposition of melanin. In the staining, Fontana-Masson Stain Kit manufactured by American […] Scientific, Inc. was used.

[3] = tested on: AMPK; conditions: Non-Patent Literature 2; cited from earlier work
[4] = tested on: Pmel17; assay: Melanosome decomposition in epidermal cells that incorporated MNT-1 melanosomes (Pmel17 Western blotting); format: cell-based, human; conditions: 24 hours, FIG. 8
Procedure: As a part of elucidation of skin color darkening action of phenformin and berberine, an effect of phenformin and berberine on melanosome decomposition in, epidermal cells was examined. The epidermal cells were isolated from a foreskin tissue obtained from a Skin Bank of the United States, National Disease Research Interchange (NDRI) in accordance with a predetermined method, and cultured. Melanosomes were prepared from MNT-1 cell strain in accordance with a predetermined method (Murase et al. (2013), J Invest Dermatol, 133: 2416-2424). A predetermined amount of melanosomes was added to epidermal cells and the cells were cultured for 24 hours. Melanosome prepared from MNT-1 cell strain cultured in an area of 35 cm^2 was added per well of the 6-well plate. After the cells were washed with PBS, the epidermal cells which had incorporated melanosome therein were added with phenformin at a final concentration of 100 or 200 μM, berberine at a final concentration of 10, 30 or 60 μM and a Goldenseal extract rich in berberine at a final concentration 0.2 or 0.5% (v/v), and the cells were cultured for a further 24 hours. Protein was extracted and subjected to Western-blotting analysis to determine the expression level of Pmel17, a major protein constituting melanosome.

[5] = tested on: human skin tissue; assay: Skin color darkening in cultured human skin tissue (appearance observed and photographed); format: cell-based
Procedure: (§1) (1) A normal human skin tissue obtained at the time of a surgical operation was purchased from a Skin Bank of the United States, National Disease Research Interchange (NDRI). The human skin tissue, from which subcutaneous fat was previously removed, was cut into pieces having a size of about 1 cm×about 1 cm by knife and cultured by using a 6-well plate at 37° C. under a 5% CO2 atmosphere. Advanced-DMEM medium containing 10% (v/v) Fetal Bovine Serum (FBS) (Life Technologies, respectively) was used for culture.
(2) The human skin tissue prepared in accordance with the method described in the above (1) was allowed to stand still in the 6-well plate. Then, phenformin was added in the medium so as to have a final concentration of 300 μM and tissue culture was initiated. The medium replacement was performed every 2 to 3 days. Six days or eight days later, the appearance of the skin tissue was observed and photographed.
A human skin tissue prepared in accordance with the method of Example 1 (1) was allowed to stand still in a 6-well plate. Then, phenformin was added in a medium at a final concentration of 100, 200 or 300 μM and tissue culture was initiated. Four days later, the appearance of the skin tissue was observed and photographed.
Skin tissues prepared in accordance with the method of Example 1 (1) were allowed to stand still in 6-well plates. […]

[6] = tested on: LC3-II and p62 proteins; assay: Autophagy markers LC3-II and p62 in epidermal cells (Western blotting); format: cell-based, human; conditions: berberine 10, 30 or 60 μM, 24 hours, FIG. 7
Procedure: As a part of elucidation of the skin color darkening action of berberine, the effect on autophagy in epidermal cells was examined. Berberine was added in a medium for the epidermal cells seeded in a 6-well plate at a final concentration of 10, 30 or 60 μM and the epidermal cells were cultured for 24 hours. Protein was extracted and subjected to Western-blotting analysis to determine the expression levels of LC3-II and p62 proteins serving as markers for autophagy.
As a part of elucidation of skin color darkening action of phenformin and berberine, an effect of phenformin and berberine on melanosome decomposition in, epidermal cells was examined. The epidermal cells were isolated from a foreskin tissue obtained from a Skin Bank of the United States, National Disease Research Interchange (NDRI) in accordance with a predetermined method, and cultured. Melanosomes were prepared from MNT-1 cell strain in accordance with a predetermined method (Murase et al. (2013), J Invest Dermatol, 133: 2416-2424). A predetermined amount of melanosomes was added to epidermal cells and the cells were cultured for 24 hours. Melanosome prepared from MNT-1 cell strain cultured in an area of 35 cm^2 was added per well of the 6-well plate. […]

[7] = tested on: LC3-II and p62 proteins; assay: Western blotting of autophagy markers LC3-II and p62 in cultured human skin tissue; format: cell-based; conditions: 4 days, phenformin at different concentrations, FIG. 3B
Procedure: as §1
Further, the skin tissue prepared in accordance with the method of Example 1 (1) was allowed to stand still in a 6-well plate and cultured in the absence or presence of phenformin at a different concentration for 4 days. Proteins were extracted from the skin tissues and subjected to Western-blotting analysis. In this manner, the expression levels of LC3-II and p62 proteins, which are localized in autophagosome membrane and finally decomposed by autophagy, were determined. A mouse anti-human LC3 antibody (Cosmo Bio) and rabbit anti-human p62 antibody (MBL International) were used as primary antibodies.

[8] = tested on: AMPK (AMP-activated protein kinase); conditions: human embryonic kidney cells (HEK 293 T cells); Non-Patent Literature 1; cited from earlier work
[9] = tested on: Pmel17 protein; assay: Western blotting of Pmel17 protein in cultured human skin tissue; format: cell-based; conditions: cultured 6 days with or without phenformin, FIG. 3A
Procedure: as §1
The skin tissue prepared in accordance with the method of Example 1 (1) was allowed to stand still in a 6-well plate and cultured in the presence or absence of phenformin for 6 days. Protein was extracted from the skin tissue and used for quantitative analysis of Pmel17 protein, which is a major protein constituting a melanosome, by Western-blotting. Using a mouse anti-human Pmel17 antibody (DAKO) as a primary antibody and a goat anti-mouse IgG antibody as a secondary antibody, signals were detected by using ECL prime reagent (GE Healthcare) and ODYSSEY Fc Imaging System (LICOR). Beta-actin protein as an internal standard was detected in the same manner.

[10] = tested on: LC3-II and p62 proteins; assay: Autophagy markers LC3-II and p62 in cultured human hair follicle (Western blotting); format: cell-based; conditions: phenformin 200 μM, FIG. 11
Procedure: A human hair follicle was surgically isolated from a normal human scalp tissue ([…]), which was obtained at the time of surgical operation, and given by a USA dermatologist. The isolated human hair follicle was cultured at 37° C. under a 5% CO2 atmosphere in William E medium supplemented with 20 μg/mL insulin (Sigma-Aldrich), 40 ng/mL hydrocortisone (Sigma-Aldrich), 2 mM L-glutamine (Life Technologies) and a 1% (v/v) penicillin/streptomycin solution (Life Technologies) (all were final concentrations). The isolated human hair follicle was allowed to stand still in a 24-well plate and phenformin was added at a final concentration of 200 μM in the medium. Tissue culture was initiated. Medium replacement was performed Day 1 and Day 3 after the initiation of culture. Follicular tissue at Day 5 after the initiation of culture was embedded in OCT compound (TissueTek) and frozen. These follicular tissues were subjected to Fontana-Masson staining and deposition of melanin was observed.
From the human hair follicle cultured in accordance with the method of Example 8, protein was extracted and subjected to Western-blotting analysis. In this manner, expression levels of autophagy markers, i.e., LC3-II and p62 proteins, were analyzed.

[11] = tested on: human hair follicle; assay: Hair color darkening in cultured human hair follicle (Fontana-Masson staining); format: cell-based; conditions: phenformin 200 μM, Day 5, FIG. 10

CCN(CC)CCCC(C)Nc1ccnc2cc(Cl)ccc12 (stereo not drawn) [Chloroquine diphosphate]
accumulation of LC3-II [1]: Accumulation of LC3-II was induced

COc1ccc2cc3[n+](cc2c1OC)CCc1cc2c(cc1-3)OCO2 [berberine, Berberine]
deposition of melanin on the epidermal layer (tissue staining) ([2]; berberine 10 or 30 μM and 30 or 100 μM, FIGS. 5 and 6): Deposition of melanin on the epidermal layer was confirmed | AMPK activation action [3]: has an AMPK activation action | expression level of Pmel17 ([4]; berberine 10, 30 or 60 μM): accumulation of Pmel17 protein in a dose-dependent manner was observed | darkening of skin color ([5]; berberine 10 or 30 μM (Caucasian) and 30 or 100 μM (African American), six or four days, FIGS. 5 and 6): darkening of skin color was induced in a berberine dose-dependent manner | expression level of LC3-II protein [6]: LC3-II and p62 proteins are accumulated in a berberine dose-dependent manner | expression level of p62 protein [6]: LC3-II and p62 proteins are accumulated in a berberine dose-dependent manner

N=C(N)NC(=N)NCCc1ccccc1 [phenformin, Phenformin]
accumulation of melanin in the epidermis ([2]; phenformin 300 μM, skin tissue, FIGS. 2A, 2B): significant accumulation of melanin in the epidermis was observed | melanin deposition ([2]; phenformin 100, 200 or 300 μM, 4 days, data not shown): melanin deposition, which is correlated with a change in skin color, was confirmed | expression level of LC3-II protein [7]: accumulation on both markers was observed | expression level of p62 protein [7]: accumulation on both markers was observed | autophagy [8]: activates autophagy through activation of AMPK | expression level of Pmel17 ([4]; phenformin 100 or 200 μM): accumulation of Pmel17 protein in a dose-dependent manner was observed | amount of Pmel17 protein [9]: amount of Pmel17 protein is increased | skin color darkening (dose dependent) ([5]; phenformin 100, 200 or 300 μM, 4 days, FIG. 4): Recognizable darkening was observed in a dose-dependent manner | expression level of LC3-II protein [10]: Accumulation of LC3-II and p62 proteins by addition of phenformin was observed | expression level of p62 protein [10]: Accumulation of LC3-II and p62 proteins by addition of phenformin was observed | hair color darkening [11]: Apparent hair color darkening was induced

Reference: patent US10966911B2, “Melanin decomposition inhibitor” (KAO CORPORATION, priority 2016, dated 2021)
